Test results taken from US8921373B2, “Compounds having TRPV1 antagonistic activity and uses thereof” (Shionogi & Co., Ltd., priority 2010, dated 2014).

Columns and labels:
[1] = target: T1, human recombinant TRPV1 (Homo sapiens (Human), UniProt Q8NER1); assay: TRPV1 Capsaicin-Based Assay (Protocol 2, TRPV1/CHO cells, Fluo-4, FLIPR); assay type: cell-based; conditions: TRPV1/CHO cells, capsaicin 100 nM final; read-out: IC50 value by the Capsaicin-Based Assay
Procedure, shortened: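 CHO cells stably expressing human TRPV1 were loaded with 3 μM Fluo-4 for 1 h, then given compounds in HBSS/1 mM CaCl2/20 mM HEPES pH 7.4 with 1% DMSO for 2 min before 100 nM capsaicin (final). FLIPR fluorescence recorded over the full course; curves fitted.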

[2] = target: T1, human recombinant TRPV1; assay: TRPV1 pH-Based Assay (Protocol 2, Ca2+ response in TRPV1/CHO cells, Fura-2); assay type: cell-based; conditions: TRPV1/CHO cells, pH 5.0-5.1; read-out: IC50 value by the pH-Based Assay
Procedure, shortened: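 CHO cells stably expressing human TRPV1, Fura-2 loaded, given compound (1% DMSO in 10× stock) before acid challenge to final pH 5.0-5.1 (3.2 or 3.3 mM H2SO4). 340/380 nm ratio recorded at 0.5 Hz; maximal ratio after agonist addition versus 16-point baseline used as response.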

T1 sequence (Q8NER1 whole entry): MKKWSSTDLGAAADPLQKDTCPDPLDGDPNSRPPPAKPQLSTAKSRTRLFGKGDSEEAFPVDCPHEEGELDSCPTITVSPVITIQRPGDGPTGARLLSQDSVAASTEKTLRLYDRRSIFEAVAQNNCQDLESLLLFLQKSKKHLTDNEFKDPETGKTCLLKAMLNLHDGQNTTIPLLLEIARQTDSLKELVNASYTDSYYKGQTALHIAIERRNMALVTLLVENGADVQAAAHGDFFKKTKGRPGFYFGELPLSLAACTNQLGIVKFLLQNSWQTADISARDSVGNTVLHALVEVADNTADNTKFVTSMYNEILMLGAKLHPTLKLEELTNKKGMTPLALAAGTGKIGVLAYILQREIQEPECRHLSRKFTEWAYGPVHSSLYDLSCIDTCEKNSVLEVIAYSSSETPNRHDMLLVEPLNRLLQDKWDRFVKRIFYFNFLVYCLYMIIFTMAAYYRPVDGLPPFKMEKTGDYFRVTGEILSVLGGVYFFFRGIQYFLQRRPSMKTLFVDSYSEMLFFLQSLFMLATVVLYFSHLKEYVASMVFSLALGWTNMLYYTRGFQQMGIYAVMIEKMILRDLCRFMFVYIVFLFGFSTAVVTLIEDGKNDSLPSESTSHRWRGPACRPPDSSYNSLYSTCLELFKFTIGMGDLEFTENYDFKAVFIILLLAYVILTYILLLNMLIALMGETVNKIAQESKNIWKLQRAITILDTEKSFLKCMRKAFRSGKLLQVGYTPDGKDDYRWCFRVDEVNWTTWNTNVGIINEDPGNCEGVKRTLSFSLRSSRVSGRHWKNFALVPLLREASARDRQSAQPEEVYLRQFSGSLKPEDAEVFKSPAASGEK

IC50 [1]: ≤ 50 nM
IC50 [2]: ≤ 50 nM
Structure (SMILES): Cc1cc(NC(=O)N2CCC(F)(c3ncc(C[C@H](O)CO)cc3F)CC2)ccc1C(F)(F)F [ACQ, (S)-4-(5-(2,3-dihydroxypropyl)-3-fluoropyridin-2-yl)-4-fluoro-N-(3-methyl-4-(trifluoromethyl)phenyl)piperidine-1-carboxamide]
